Values of other authors as cited in patent US20070072904A1, “PPAR active compounds” (priority 2005, published 2007).

What was measured:
[1] = recent large prospective trial
PPARδ = target: T1, PPARδ (Homo sapiens, UniProt Q03181)
T1 sequence (Q03181 1-441): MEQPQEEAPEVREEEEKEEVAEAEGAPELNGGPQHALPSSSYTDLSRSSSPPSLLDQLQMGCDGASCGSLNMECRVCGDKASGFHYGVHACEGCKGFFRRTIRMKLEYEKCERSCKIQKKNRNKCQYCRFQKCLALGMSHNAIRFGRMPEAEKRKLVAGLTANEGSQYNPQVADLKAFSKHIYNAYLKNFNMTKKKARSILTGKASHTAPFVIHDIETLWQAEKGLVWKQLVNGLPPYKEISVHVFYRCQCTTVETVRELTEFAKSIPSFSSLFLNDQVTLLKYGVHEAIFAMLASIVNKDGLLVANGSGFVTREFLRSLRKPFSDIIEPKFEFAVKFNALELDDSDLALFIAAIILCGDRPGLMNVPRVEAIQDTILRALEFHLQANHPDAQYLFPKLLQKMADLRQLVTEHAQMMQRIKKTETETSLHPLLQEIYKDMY

murine PPARα = target: T2, murine PPARα (Mus musculus, UniProt P23204)
T2 sequence (P23204 1-468): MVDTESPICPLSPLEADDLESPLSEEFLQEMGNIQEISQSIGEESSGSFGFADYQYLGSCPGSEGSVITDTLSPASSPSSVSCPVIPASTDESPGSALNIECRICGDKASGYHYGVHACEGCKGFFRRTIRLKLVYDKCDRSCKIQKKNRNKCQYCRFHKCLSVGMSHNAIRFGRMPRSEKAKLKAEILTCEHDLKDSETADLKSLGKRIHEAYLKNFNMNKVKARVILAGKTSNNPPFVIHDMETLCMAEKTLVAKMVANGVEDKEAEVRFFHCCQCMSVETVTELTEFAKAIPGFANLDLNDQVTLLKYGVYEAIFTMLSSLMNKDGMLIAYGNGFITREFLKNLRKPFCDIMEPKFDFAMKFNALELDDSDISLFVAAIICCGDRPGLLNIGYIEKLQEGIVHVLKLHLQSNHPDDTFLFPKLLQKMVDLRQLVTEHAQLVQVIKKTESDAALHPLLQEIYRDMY

Row | SMILES | reduction in cardiovascular events or death [1] | agonist selectivity for PPARδ over PPARγ (PPARδ) | activity on murine PPARα (murine PPARα)
1 | Cc1ccc(C)c(OCCCC(C)(C)C(=O)O)c1 [gemfibrozil] | 22% | – | –
2 | CCCc1c(OCCCOc2ccc(OCC(=O)O)cc2)ccc(C(C)=O)c1O [Compound L-165041] | – | approximately 30 fold | inactive
